In general, EC50 refers to the concentration giving half of the maximal effect.

Each structure is given as a SMILES string.

For this experiment, the target named is human α7 nAChR (Homo sapiens (Human), UniProt P36544). Kind of experiment: Automated patch-clamp electrophysiology functional assay (Assay A). The class given is cell-based. As to conditions: IonFlux HT whole-cell population patch, HEK cells expressing human α7/RIC-3, 40 μM acetylcholine. A digest of the protocol: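 Whole-cell population patch clamp on HEK cells stably co-expressing human α7 and RIC-3, held at −60 mV, room temperature. Compounds tested at three ascending concentrations per recording with or without 40 μM acetylcholine; currents normalized to the 40 μM acetylcholine-evoked reference response to give agonist and potentiation EC50.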
Chain of human α7 nAChR (P36544 23-502): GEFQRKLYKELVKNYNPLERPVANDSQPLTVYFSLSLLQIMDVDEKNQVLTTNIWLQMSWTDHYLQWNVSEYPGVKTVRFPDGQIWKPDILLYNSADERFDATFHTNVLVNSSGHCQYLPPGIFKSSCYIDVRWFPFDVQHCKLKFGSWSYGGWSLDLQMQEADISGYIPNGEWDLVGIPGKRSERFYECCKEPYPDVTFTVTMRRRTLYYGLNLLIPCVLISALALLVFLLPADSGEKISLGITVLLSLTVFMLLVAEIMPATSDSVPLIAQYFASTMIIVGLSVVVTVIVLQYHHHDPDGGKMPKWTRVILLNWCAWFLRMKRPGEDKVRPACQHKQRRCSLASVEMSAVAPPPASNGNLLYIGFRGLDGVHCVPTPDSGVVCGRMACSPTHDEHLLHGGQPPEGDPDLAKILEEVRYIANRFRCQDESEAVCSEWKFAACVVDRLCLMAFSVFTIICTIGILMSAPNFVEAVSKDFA

With `Cc1ccccc1CNC(=O)C1C2Oc3ccc(F)cc3C21` (stereo not drawn) [Example C31, exo-5-fluoro-N-[(2-methylphenyl)methyl]-1a,6b-dihydro-1H-cyclopropa[b][1]benzofuran-1-carboxamide], the EC50 runs as follows: (electrophysiology EC50 values) 1800 nM; (potency class) 500 to 5000 nM.

On to `O=C(N[C@H]1CCOc2cc(F)c(F)cc21)C1C2COc3ccccc3C21` (stereo partly drawn) [Example A19, exo-N-[(4S)-6,7-difluoro-3,4-dihydro-2H-1-benzopyran-4-yl]-1,1a,2,7b-tetrahydrocyclopropa[c][1]benzopyran-1-carboxamide], for which the EC50 runs as follows: (electrophysiology EC50 values) 1600 nM; (potency class) 500 to 5000 nM. As for `CCOc1ccc([C@H](COC)NC(=O)C2C3Oc4ccc(C#N)cc4C32)cc1` (stereo partly drawn) [Example B16, exo-5-cyano-N-[(1R)-1-(4-ethoxyphenyl)-2-methoxyethyl]-1a,6b-dihydro-1H-cyclopropa[b][1]benzofuran-1-carboxamide], the EC50 (electrophysiology EC50 values) was determined as 4100 nM. On to `O=C(NCCc1ccccc1)C1C2Oc3ccc(F)cc3C21` (stereo not drawn) [Example C11, exo-5-fluoro-N-(2-phenylethyl)-1a,6b-dihydro-1H-cyclopropa[b][1]benzofuran-1-carboxamide], for which the EC50 is, setting by setting: (electrophysiology EC50 values) 2200 nM; (potency class) 500 to 5000 nM. Taken in the same sequence, the figures for `O=C(NC1(c2ccc(F)cc2)CC(O)C1)C1C2COc3ccccc3C21` (stereo not drawn) [Example A5, exo-N-[1-(4-fluorophenyl)-3-hydroxycyclobutyl]-1,1a,2,7b-tetrahydrocyclopropa[c][1]benzopyran-1-carboxamide] were 4600 nM and 500 to 5000 nM. Taken in the same sequence, the figures for `COC(=O)[C@@H](NC(=O)C1C2Oc3ccc(F)cc3C21)c1cccc(F)c1` (mixture of isomers) [Example C13, methyl 2-(3-fluorophenyl)-2-[(exo-5-fluoro-1a,6b-dihydro-1H-cyclopropa[b][1]benzofuran-1-carbonyl)amino]acetate] were 3500 nM and 500 to 5000 nM. For `COc1ccc(-c2noc(CNC(=O)C3C4Oc5ccc(F)cc5C43)n2)cn1` (stereo not drawn) [Example C51, exo-5-fluoro-N-{[3-(6-methoxypyridin-3-yl)-1,2,4-oxadiazol-5-yl]methyl}-1a,6b-dihydro-1H-cyclopropa[b][1]benzofuran-1-carboxamide] the same measures were 1000 nM and 500 to 5000 nM.

Regarding `CCOc1ccc([C@H](COC)NC(=O)[C@@H]2[C@H]3Oc4ccnc(OC)c4[C@H]32)cc1` [Example B13, exo-N-[(1R)-1-(4-ethoxyphenyl)-2-methoxyethyl]-6-methoxy-1a,6b-dihydro-1H-cyclopropa[4,5]furo[3,2-c]pyridine-1-carboxamide], the EC50 (electrophysiology EC50 values) was determined as 1100 nM and the EC50 (potency class) is 500 to 5000 nM.

As to `O=C(NC1(c2ccc(F)cc2)CC1)C1C2COc3ccc(F)cc3C21` (stereo not drawn) [Example A9, exo-6-fluoro-N-[1-(4-fluorophenyl)cyclopropyl]-1,1a,2,7b-tetrahydrocyclopropa[c][1]benzopyran-1-carboxamide], the EC50 runs as follows: (electrophysiology EC50 values) 1100 nM; (potency class) 500 to 5000 nM. For `CCOc1ccc([C@@H](NC(=O)C2C3Oc4ccc(F)cc4C32)C(F)F)cn1` (stereo partly drawn) [Example C5, exo-N-[(1R)-1-(6-ethoxypyridin-3-yl)-2,2-difluoroethyl]-5-fluoro-1a,6b-dihydro-1H-cyclopropa[b][1]benzofuran-1-carboxamide] the same measures were 1400 nM and 500 to 5000 nM. Turning to `COC(CNC(=O)[C@@H]1[C@H]2COc3ccc(F)cc3[C@H]21)C1CCCCC1` (single isomer, unassigned) [Example A4, exo-N-(2-cyclohexyl-2-methoxyethyl)-6-fluoro-1,1a,2,7b-tetrahydrocyclopropa[c][1]benzopyran-1-carboxamide], the EC50 (potency class) was 500 to 5000 nM. As for `O=C(NC(c1ccccc1)c1ccncc1)[C@@H]1[C@H]2Oc3ccc(F)cc3[C@H]21` (stereo partly drawn) [Example C39, 4-{[(exo-5-fluoro-1a,6b-dihydro-1H-cyclopropa[b][1]benzofuran-1-carbonyl)amino](phenyl)methyl}pyridine], where the note is “potency class”, the EC50 was 500 to 5000 nM.

(Values after patent publication US20240368109A1, “ALLOSTERIC MODULATORS OF NICOTINIC ACETYLCHOLINE RECEPTORS” (MERCK SHARP & DOHME LLC, priority 2021, published 2024).)
